The numbers were not newly measured in article PMC8513935, which cites them from elsewhere.

A short description of data set [1]: experimental, compiled by the authors from the literature (the ESI cites the sources).
Data set [2] can be described thus: log P octanol/water from commercial databases, averaged (the ESI). Conditions: Octanol (wet), 25 C.
A short description of data set [3]: derived by the authors as gas->solvent minus gas->water (a hypothetical dry solvent; the ESI), not a two-phase measurement.

Each structure is given as a SMILES string.

As for `Cc1cccc(C)c1`, the log K of transfer, gas to solvent is 4.38 log10 K in data set [1] (1,2-Dichloroethane, 25 C); 4.18 log10 K in data set [1] (CCl4, 25 C); 4.29 log10 K in data set [1] (Chloroform, 25 C); 3.95 log10 K in data set [1] (Cyclohexane, 25 C); 3.84 log10 K in data set [1] (Hexadecane, 25 C); 3.79 log10 K in data set [1] (Octan-1-ol, 25 C). In addition, in data set [1] (Water, 25 C), the log K of transfer, gas to solvent was 0.61 log10 K. The log K of transfer, water to solvent was 3.2 log10 K in data set [2]; 3.77 log10 K in data set [3] (1,2-Dichloroethane, 25 C); 3.57 log10 K in data set [3] (CCl4, 25 C); 3.68 log10 K in data set [3] (Chloroform, 25 C); 3.34 log10 K in data set [3] (Cyclohexane, 25 C); 3.23 log10 K in data set [3] (Hexadecane, 25 C). For the same compound, the log K of transfer, water to solvent in data set [3] (Octan-1-ol(dry), 25 C) was 3.18 log10 K.
Turning to `CC(C)CC(C)(C)C`, the log K of transfer, gas to solvent in data set [1] (2-Methylpropan-2-ol, 25 C) was 2.64 log10 K; in data set [1] (Butanone, 25 C), 2.97 log10 K; in data set [1] (Decan-1-ol, 25 C), 2.86 log10 K; in data set [1] (Hexadecane, 25 C) it was 3.1 log10 K; in data set [1] (Hexan-1-ol, 25 C) it was 2.98 log10 K; in data set [1] (Pentan-1-ol, 25 C), 2.85 log10 K. For the same compound, the log K of transfer, gas to solvent in data set [1] (Propan-1-ol, 25 C) is 2.69 log10 K; in data set [1] (Propan-2-ol, 25 C), 2.7 log10 K; in data set [1] (Tetrahydrofuran, 25 C) it was 3.41 log10 K; in data set [1] (Water, 25 C), -2.12 log10 K. Moreover, the log K of transfer, water to solvent in data set [2] is 4.8 log10 K; in data set [3] (2-Methylpropan-2-ol, 25 C), 4.76 log10 K; in data set [3] (Butanone, 25 C) it was 5.09 log10 K; in data set [3] (Decan-1-ol, 25 C), 4.98 log10 K; in data set [3] (Hexadecane, 25 C), 5.22 log10 K; in data set [3] (Hexan-1-ol, 25 C) it was 5.1 log10 K. Moreover, the log K of transfer, water to solvent in data set [3] (Pentan-1-ol, 25 C) is 4.97 log10 K; in data set [3] (Propan-1-ol, 25 C) it was 4.81 log10 K; in data set [3] (Propan-2-ol, 25 C) it was 4.82 log10 K; in data set [3] (Tetrahydrofuran, 25 C), 5.53 log10 K.
Turning to `CCC(C)C`, the log K of transfer, gas to solvent in data set [1] (2-Methylpropan-2-ol, 25 C) is 1.88 log10 K; in data set [1] (Cyclohexanone, 25 C) it was 1.89 log10 K; in data set [1] (Hexadecane, 25 C), 2.01 log10 K; in data set [1] (Water, 25 C) it was -1.75 log10 K. The log K of transfer, water to solvent is 3.19 log10 K in data set [2]; 3.63 log10 K in data set [3] (2-Methylpropan-2-ol, 25 C); 3.64 log10 K in data set [3] (Cyclohexanone, 25 C); 3.76 log10 K in data set [3] (Hexadecane, 25 C).
Take `CCC1CCCCC1`: the log K of transfer, gas to solvent in data set [1] (1,2-Dichloroethane, 25 C) is 3.57 log10 K; in data set [1] (Acetonitrile, 25 C), 2.87 log10 K; in data set [1] (Butan-1-ol, 25 C), 3.44 log10 K; in data set [1] (Butanone, 25 C), 3.53 log10 K; in data set [1] (Butyronitrile, 25 C), 3.35 log10 K; in data set [1] (CCl4, 25 C), 4.08 log10 K. Also, the log K of transfer, gas to solvent in data set [1] (Chlorobenzene, 25 C) was 4.06 log10 K; in data set [1] (Chloroform, 25 C) it was 3.99 log10 K; in data set [1] (Cyclohexanone, 25 C), 3.55 log10 K; in data set [1] (Dichloromethane, 25 C), 3.82 log10 K; in data set [1] (Ethanol, 25 C) it was 3.27 log10 K; in data set [1] (Hexadecane, 25 C), 3.88 log10 K. For the same compound, the log K of transfer, gas to solvent was 3.97 log10 K in data set [1] (Hexane, 25 C); 2.96 log10 K in data set [1] (Methanol, 25 C); 2.56 log10 K in data set [1] (Perfluoroalkane, 25 C); 3.28 log10 K in data set [1] (Propan-1-ol, 25 C); 3.27 log10 K in data set [1] (Propan-2-ol, 25 C); 3.32 log10 K in data set [1] (Propanone, 25 C). The log K of transfer, gas to solvent in data set [1] (Propionitrile, 25 C) is 3.17 log10 K; in data set [1] (Tetrahydrofuran, 25 C), 3.92 log10 K; in data set [1] (Water, 25 C) it was -1.58 log10 K. In addition, the log K of transfer, water to solvent in data set [2] is 4.56 log10 K; in data set [3] (1,2-Dichloroethane, 25 C), 5.15 log10 K; in data set [3] (Acetone, 25 C), 4.9 log10 K; in data set [3] (Acetonitrile, 25 C), 4.45 log10 K; in data set [3] (Butan-1-ol, 25 C) it was 5.02 log10 K; in data set [3] (Butanone, 25 C), 5.11 log10 K. Moreover, the log K of transfer, water to solvent is 4.93 log10 K in data set [3] (Butyronitrile, 25 C); 5.66 log10 K in data set [3] (CCl4, 25 C); 5.64 log10 K in data set [3] (Chlorobenzene, 25 C); 5.57 log10 K in data set [3] (Chloroform, 25 C); 5.13 log10 K in data set [3] (Cyclohexanone, 25 C); 5.4 log10 K in data set [3] (Dichloromethane, 25 C). The log K of transfer, water to solvent in data set [3] (Ethanol, 25 C) is 4.84 log10 K; in data set [3] (Hexadecane, 25 C) it was 5.45 log10 K; in data set [3] (Hexane, 25 C), 5.55 log10 K; in data set [3] (Methanol, 25 C), 4.54 log10 K; in data set [3] (Perfluoroalkane, 25 C) it was 4.14 log10 K; in data set [3] (Propan-1-ol, 25 C) it was 4.86 log10 K. The log K of transfer, water to solvent in data set [3] (Propan-2-ol, 25 C) is 4.85 log10 K; in data set [3] (Propionitrile, 25 C), 4.75 log10 K; in data set [3] (Tetrahydrofuran, 25 C), 5.5 log10 K.
As to `CCCc1ccccc1`, the log K of transfer, gas to solvent is 4.23 log10 K in data set [1] (Hexadecane, 25 C); 4.07 log10 K in data set [1] (Hexane, 25 C); 3.91 log10 K in data set [1] (Methanol, 25 C); 4.09 log10 K in data set [1] (Octan-1-ol, 25 C); 3.93 log10 K in data set [1] (Propan-2-ol, 25 C); 4.87 log10 K in data set [1] (Tetrahydrofuran, 25 C). Also, the log K of transfer, gas to solvent in data set [1] (Water, 25 C) is 0.39 log10 K. Also, the log K of transfer, water to solvent is 3.7 log10 K in data set [2]; 3.84 log10 K in data set [3] (Hexadecane, 25 C); 3.68 log10 K in data set [3] (Hexane, 25 C); 3.52 log10 K in data set [3] (Methanol, 25 C); 3.7 log10 K in data set [3] (Octan-1-ol(dry), 25 C); 3.54 log10 K in data set [3] (Propan-2-ol, 25 C). For the same compound, in data set [3] (Tetrahydrofuran, 25 C), the log K of transfer, water to solvent was 4.48 log10 K.
`CC(C)CCC(C)C`: the log K of transfer, gas to solvent in data set [1] (1,2-Dichloroethane, 25 C) was 3.1 log10 K; in data set [1] (Acetonitrile, 25 C) it was 2.39 log10 K; in data set [1] (Butanone, 25 C) it was 3.14 log10 K; in data set [1] (Butyronitrile, 25 C), 2.92 log10 K; in data set [1] (CCl4, 25 C), 3.66 log10 K; in data set [1] (Chlorobenzene, 25 C) it was 3.64 log10 K. Further, the log K of transfer, gas to solvent in data set [1] (Chloroform, 25 C) is 3.56 log10 K; in data set [1] (Cyclohexanone, 25 C), 3.06 log10 K; in data set [1] (Dichloromethane, 25 C) it was 3.4 log10 K; in data set [1] (Hexadecane, 25 C), 3.31 log10 K; in data set [1] (Hexane, 25 C), 3.64 log10 K; in data set [1] (Perfluoroalkane, 25 C), 2.37 log10 K. The log K of transfer, gas to solvent is 2.87 log10 K in data set [1] (Propan-2-ol, 25 C); 2.95 log10 K in data set [1] (Propanone, 25 C); 2.76 log10 K in data set [1] (Propionitrile, 25 C); 3.53 log10 K in data set [1] (Tetrahydrofuran, 25 C); 3.47 log10 K in data set [1] (Toluene, 25 C); -2.02 log10 K in data set [1] (Water, 25 C). In addition, the log K of transfer, water to solvent in data set [2] was 4.8 log10 K; in data set [3] (1,2-Dichloroethane, 25 C), 5.12 log10 K; in data set [3] (Acetone, 25 C), 4.97 log10 K; in data set [3] (Acetonitrile, 25 C), 4.41 log10 K; in data set [3] (Butanone, 25 C), 5.16 log10 K; in data set [3] (Butyronitrile, 25 C), 4.94 log10 K. Besides, the log K of transfer, water to solvent was 5.68 log10 K in data set [3] (CCl4, 25 C); 5.66 log10 K in data set [3] (Chlorobenzene, 25 C); 5.58 log10 K in data set [3] (Chloroform, 25 C); 5.08 log10 K in data set [3] (Cyclohexanone, 25 C); 5.42 log10 K in data set [3] (Dichloromethane, 25 C); 5.33 log10 K in data set [3] (Hexadecane, 25 C). Moreover, the log K of transfer, water to solvent in data set [3] (Hexane, 25 C) is 5.66 log10 K; in data set [3] (Perfluoroalkane, 25 C), 4.39 log10 K; in data set [3] (Propan-2-ol, 25 C), 4.89 log10 K; in data set [3] (Propionitrile, 25 C), 4.78 log10 K; in data set [3] (Tetrahydrofuran, 25 C) it was 5.55 log10 K; in data set [3] (Toluene, 25 C), 5.49 log10 K.
Take `Cc1ccccn1`: the log K of transfer, gas to solvent in data set [1] (2-Methylpropan-1-ol, 25 C) is 4.54 log10 K; in data set [1] (2-Methylpropan-2-ol, 25 C), 4.33 log10 K; in data set [1] (Benzene, 25 C), 4.3 log10 K; in data set [1] (Butan-2-ol, 25 C) it was 4.4 log10 K; in data set [1] (Chloroform, 25 C) it was 5.12 log10 K; in data set [1] (Cyclohexane, 25 C) it was 3.7 log10 K. Also, the log K of transfer, gas to solvent in data set [1] (Hexadecane, 25 C) was 3.42 log10 K; in data set [1] (Propan-2-ol, 25 C), 4.31 log10 K; in data set [1] (Water, 25 C) it was 3.4 log10 K. For the same compound, the log K of transfer, water to solvent in data set [2] was 1.12 log10 K; in data set [3] (2-Methylpropan-1-ol, 25 C), 1.14 log10 K; in data set [3] (2-Methylpropan-2-ol, 25 C) it was 0.93 log10 K; in data set [3] (Benzene, 25 C), 0.9 log10 K; in data set [3] (Butan-2-ol, 25 C), 0.999 log10 K; in data set [3] (Chloroform, 25 C), 1.72 log10 K. The log K of transfer, water to solvent was 0.3 log10 K in data set [3] (Cyclohexane, 25 C); 0.022 log10 K in data set [3] (Hexadecane, 25 C); 0.91 log10 K in data set [3] (Propan-2-ol, 25 C).
